According to patent publication US9884040B2, “Desethylamiodarone for use in cancer treatment” (PÉCSI TUDOMÁNYEGYETEM, priority 2015, dated 2018):

Legend:
[1] = test system: DU-145 prostate cancer cell line; assay: MTT cell viability assay, DU-145; type: cell-based; conditions: increasing concentrations, 24, 48 and 72 hours
Procedure: The cells were seeded into 96-well plates at a starting density of 10^4 cells per well and cultured overnight before DEA was added to the medium for 24 h and 48 h. The medium was changed to a fresh one containing 0.5% of 3-[4,5-dimethylthiazol-2-yl]-2,5-diphenyl-tetrazolium bromide (MTT+) for an additional 3 hours, then the MTT+ reaction was terminated by adding HCl to 10 mM final concentration. The amount of blue formazan dye formed from MTT+ was proportional to the number of live cells, and was determined with an Anthos Labtech 2010 ELISA reader at 550 nm. All experiments were run in at least 4 replicates and repeated 3 times.
145 cells were exposed to increasing concentrations of DEA for 24, 48 and 72 hours. Viability of the cells was detected by the MTT method. Untreated cells served as controls.

[2] = test system: HeLa human cervix adenocarcinoma cell line; assay: Colony formation assay, HeLa; type: cell-based; conditions: one week; 1, 1.5, 2, 2.5 or 3 μM
Procedure: Cells were trypsinized and plated in triplicate into 6-well plates at 500 cells/well. Cells were treated with different concentration of Dea. After 7 days of incubation, cells were washed and stained with Coomassie-blue, and the colonies containing more than 50 cells were counted. The number of colonies were determined and normalized to the number of colonies in controls. To assess the recovery ability of cells that survived treatment, long-term (7 days) colony formation assay was performed. […] HeLa cells were incubated with the indicated concentrations of desethylamiodarone (1, 1.5, 2, 2.5 or 3 μM for one week and cell colonies were fixed, stained and counted. (A-B) Data are expressed as the mean±SD of ≧3 experiments; a p<0.01 is considered statistically significant The data shown on FIG. 8 provide evidence that DEA can be useful to cervix carcinoma.

[3] = test system: 4T1 (mouse mammary carcinoma) cells; assay: Colony formation assay, 4T1; type: cell-based; conditions: one week following treatment
Description: Desethylamiodarone (DEA) is the main metabolite of the widely used anti-arrhythmic drug amiodarone. DEA also has antiarrhythmic activity in clinical relevant concentration. […] (27, 28, 29, 30) DEA accumulates rapidly in the lungs. […] Here, we checked whether Desethylamiodarone can affect invasion, migration of cancer cells. First of all, we initially checked whether desethylamiodarone has effect on the viability of T24 (human urinary bladder carcinoma), B16F10 (mice melanoma), 4T1 (mouse mammary carcinoma) cells using MTT assay. As shown in FIG. 1-3 Desethylamiodarone had significant cytotoxic activity in very low concentrations. To assess the recovery ability of cells that survived treatment, long-term (7 days) colony formation assay was performed.
Cells were trypsinized and plated in triplicate into 6-well plates at 500 cells/well. Cells were treated with different concentration of Dea. After 7 days of incubation, cells were washed and stained with Coomassie-blue, and the colonies containing more than 50 cells were counted. The number of colonies were determined and normalized to the number of colonies in controls.

[4] = test system: HeLa human cervix adenocarcinoma cell line; assay: Radiotherapy plus DEA, colony formation, HeLa; type: cell-based; conditions: 1Gy or 2Gy single dose alone or with 500 nM-3 μM DEA
Procedure: Cells were trypsinized and plated in triplicate into 6-well plates at 500 cells/well. Cells were treated with different concentration of DEA and irradiated with a dose of 1.0 and 2.0 Grays. A telecobalt (Therathron 780 C) external irradiation equipment (average photon energy of 1.25 MeV) will be applied for irradiating cells. After 7 days of incubation, cells were washed and stained with Coomassie-blue, and the colonies containing more than 50 cells were counted. The number of colonies were determined and normalized to the number of colonies in controls.
To examine the effects of a DEA on the effectiveness of radiotherapy the cells were treated with 1Gy or 2Gy single dose irradiation alone or combined with 500 nM-3 μM DEA.
The cells were treated with 1Gy or 2Gy single dose irradiation alone or combined with 500 nM-3 μM DEA. Untreated cells served as controls. The results are mean±SEM of 3 independent experiments performed in at least quadruplicate. p<0.05, compared to the corresponding control group.

[5] = test system: AKT (protein kinase B); assay: Western blot of Akt phosphorylation; type: cell-based, human; conditions: 5-10-15 μM, 6 hours; T24, B16F10 cell lines
Procedure: (§1) 10^6 cells were seeded into regular plates and treated as for the cell viability assay. Cells were harvested at intervals in a chilled lysis buffer containing 0.5 mM sodium-metavanadate, 1 mM ethylenediaminetetraacetic acid (EDTA) and protease inhibitor cocktail in phosphate-buffered saline (PBS). Probes were boiled and subjected to 10% sodium dodecyl sulphate polyacrylamide gel electrophoresis then transferred to nitrocellulose membranes. The membranes were blocked in 5% low fat milk for 1.5 h at room temperature then exposed to primary antibodies at 4° C. overnight in blocking solution. Appropriate horseradish peroxidase-conjugated secondary antibodies were used at a 1:5000 dilution (anti-mouse and anti-rabbit IgGs; Sigma-Aldrich, Steinheim, Germany) and visualized by enhanced chemiluminescence (Amersham Biosciences, Piscataway, N.J., USA). All experiments were repeated 3 times.
(§2) To determine the downstream consequences of DEA treatment, we examined the phosphorylation status of AKT (protein kinase B), GSK-3β and p42/44 mitogen-activated protein kinase (MAPK) (ERK1/2) by immunoblotting in T24 (human urinary bladder carcinoma), B16F10 (mice melanoma) cell lines. Cells were cultured in the presence of 5-10-15 μM DEA for 6 hours. The cells were prepared and western blot analysis was carried out to perform both phosphorylated and non-phosphorylated forms of the previously listed proteins. […]

[6] = test system: p42/44 mitogen-activated protein kinase (MAPK) (ERK1/2); assay: Western blot of ERK phosphorylation; type: cell-based, human; conditions: 5-10-15 μM, 6 hours; T24, B16F10 cell lines
Procedure: as §1, §2

[7] = test system: BMI1; assay: Western blot of BMI1 expression in T24 cells; type: cell-based, human; conditions: T24 cells, 5, 10 and 15 μM, 24 h
Procedure: as §1
T24 cells were exposed to 5, 10 and 15 μM of DEA for 24 h intervals. Equal amounts of lysate protein were subjected to gel electrophoresis. GAPDH was used as loading control. Results are presented as representative immunoblots (top panel) and densitometric analysis of Western blots in bar diagrams (bottom graph). Data are expressed as the mean±1 SD, n=3 and presented as fold difference from control (medium). Significant difference from control: *p<0.05.

[8] = cited from earlier work
[9] = cited from earlier work; remark: listed apart in the source
[10] = test system: mitochondrial permeability transition; conditions: applicants' previous published results; cited from earlier work

CCCCc1oc2ccccc2c1C(=O)c1cc(I)c(OCCNCC)c(I)c1 [DEA, (2-butyl-3-benzofuranyl)[4-[2-(ethylamino)ethoxy]-3,5-diiodophenyl]-methanone]
Viability of DU-145 cells (MTT) [1]: induces cell death
Colony formation, HeLa [2]: significant decrease in the number and the size of colonies
Colony formation, 4T1 [3]: significant decrease in the number and the size of colonies
Radiosensitization, colony formation, HeLa [4]: sensitize cervix cancer to irradiation
Akt (Ser473) phosphorylation [5]: repressed Akt (Ser473) phosphorylation in a concentration-dependent manner
ERK phosphorylation [6]: a decrease in its phosphorylation
BMI1 expression [7]: significantly suppresses BMI1 expression
Concentration in patient plasma ([8]; after amiodarone in therapeutic doses): 1700 to 4500 nM
Mean elimination half-life ([8]; in vivo): 40 days
Plasma protein binding [9]: strongly bound to plasma proteins
Mitochondrial permeability transition [10]: caused mitochondrial permeability transition
